Reference: US11905338B2, “Peptides for use as cell-penetrating peptides” (CENTRE NATIONAL DE LA RECHERCHE SCIENTIFIQUE, priority 2018, dated 2024)
Entries after “also recorded” stand apart in the source; their conditions may differ. Where no end group is shown, it is not given here. [ ]: non-standard residue; d: D form. Ahx = NCCCCCC(=O)O

Experiments:
[1] = test system: FLuc in U937 human macrophage; assay: Luciferase silencing on non-adherent macrophage suspension; type: cell-based; conditions: 10-50 nM siRNA without CPP
Experimental: FIG. 15: Evaluation of CPP1:siRNA and CPP2:siRNA PBNs activity on cell suspensions. […] Incubation conditions: 10,000 cells/well, CPP:siRNA ratio=20:1 at the indicated siRNA concentration, incubation time 1.5 h in serum-free medium. Normalization of FLuc/NLuc values to the condition of untreated cells (N.T.). Abbreviations: siSCR=scrambled siRNA, siFLuc=firefly luciferase specific siRNA. n=2 independent experiments in triplicates. […] Incubation conditions: 10,000 cells/well, CPP:siRNA ratio=20:1 at the indicated siRNA concentration, incubation time 1.5 h in medium containing 10% serum. Normalization of FLuc/NLuc values to the condition of untreated cells (N.T.). Abbreviations: siSCR=scrambled siRNA, siFLuc=firefly luciferase specific siRNA. n=2 independent experiments in triplicates. […] Incubation conditions: 10,000 cells/well, CPP:siRNA ratio=20:1 at the indicated siRNA concentration (or the siRNA alone), incubation time 1.5 h in serum-free medium. Normalization of FLuc values to the condition of untreated cells (N.T.). n=2 independent experiments in triplicates. Next, the transfection potential of the CPP2:siFLuc on non-adherent cells such as the firefly luciferase stably transfected U937 human macrophage was evaluated (FIG. 15C). […] The silencing efficiency was determined with 40%, 80% and 100% for the siRNA concentrations of 10 nM, 20 nM and 50 nM, respectively.

[2] = Circular dichroism conformational analysis; type: physicochemical; conditions: for Conformation by circular dichroism, PEPTIDE +siRNA: CPP:siRNA molar ratio R 20, CPP 40 μM; for Conformation by circular dichroism, PEPTIDE +siRNA +charged LUVs / Conformation by circular dichroism, PEPTIDE +siRNA +neutral LUVs: R 20, CPP:lipid r 10, CPP 40 μM; for Conformation by circular dichroism, PEPTIDE: peptide free in solution, CPP 40 μM, rc = random coiled
Experimental: Circular dichroism (CD) measurements. CD spectra were recorded on a Jasco 810 (Japan) dichrograph in quartz suprasil cells (Hellma) with an optical path of 1 mm for peptide in solution or in the presence of liposomes vesicles. The same concentrations of peptide (40 μM) was used for each condition. Spectra were obtained from 3 accumulations between 190 nm and 260 nm with a data pitch of 0.5 nm, a bandwidth of 1 nm and a standard sensitivity.
The predicted structures were then compared to experimental investigations. Circular dichroism spectra were recorded for the peptides free in solution, afterwards for the peptides in the presence of siRNA and then after the addition of liposomes.

[3] = Dynamic light scattering and zeta potential of nanoparticles; type: physicochemical; conditions: for PdI / Mean size (nm) I (%) / Mean size (nm) Nb (%): CPP:siRNA R = 20, 5% glucose; for Mean size (nm) I (%): intensity; for Mean size (nm) Nb (%): number
Experimental: Dynamic light scattering (DLS) and Zeta potential (ZP). CPPs:siRNA nanoparticles were evaluated with a Zetasizer NanoZS (Malvern) in terms of mean size (Z-average) of the particle distribution and of homogeneity (PdI). Zeta potential was determined in 5% glucose+5 mM of NaCl. All results were obtained from three independent measurements (three runs for each measurement at 25° C.).

[4] = test system: firefly luciferase (FLuc) in U87 cells; assay: Luciferase reporter gene silencing assay; type: cell-based, human; conditions: for Luciferase knock-down at R=40 relative to R=20: R=40, siFLuc 20 nM; for Incubation time for maximum and saturating FLuc silencing / Reduction of FLuc activity: 20 nM siFLuc; for Reduction in the luciferase activity in presence of serum: 10% serum, 15-20 nM siRNA (CPP1), 10-20 nM (CPP2); for Reduction of FLuc activity: 5 min incubation, then 36 h in medium; for Fold more active than C6M1-L in reduced luciferase expression / Fold more active than C6M1 in reduced luciferase expression: CPP=200 nM, siRNA=10 nM; for Activity of nanoparticles in luciferase silencing: R=20, siFLuc, compared with parent CPP
Experimental: Transfection experiments. For Luciferase assay, the different cells (5,000 cells per well) were seeded 24 h before experiment into 96-well plates using the corresponding medium as described above. […] In the meantime, the growth medium covering the cells was replaced by 70 μL of fresh pre-warmed serum-free DMEM. […] After the addition of DMEM supplemented with 20% FBS (final FBS concentration=10%), cells were further incubated for 36 h and finally lysed for the luciferase detection. For transfection in the presence of serum, cells were incubated with nanoparticles in DMEM+10% FBS for 1.5 h at 37° C., and then DMEM supplemented with 10% FBS were added to the cells which were further incubated for 36 h before the final cell lyses for the luciferase detection.
Luciferase reporter gene silencing assay. The evaluation of siRNA delivery using the different vectors was carried out by measuring the remaining luciferase firefly (FLuc) activity in cell lysates. Briefly, after 36 h, the medium covering the cells was carefully removed and replaced by 50 μL of 0.5× Passive Lysis Buffer (PLB; Promega). After 30 min of shaking at 4° C., plates containing the cells were centrifuged (10 min, 1,800 rpm, 4° C.) and 5 μL of each cell lysate supernatant were finally transferred into a white 96-well plate. For the U87-FLuc-NLuc cells, both luciferase activities were quantified using a plate-reading luminometer (POLARstar Omega, BMG Labtech) using half-diluted Dual Luciferase Assay Reagents (Promega) as reported elsewhere (G. Aldrian, et al., (2017) J. Control. Release Off. J. Control. Release Soc. 256, 79-91). The results were expressed as percentage of relative light units (RLU) for each luciferase normalized first to non-treated cells (% FLuc and % NLuc) and then normalized to the value of % NLuc to obtain the Relative Luc Activity (% FLuc/% NLuc).
Cellular activity of CPP-based nanoparticles was evaluated in a luciferase screening assay, as previously described (L. N. Patel, et al., (2007) Pharm. Res. 24, 1977-1992; A. Elmquist, et al., (2001) Exp. Cell Res. 269, 237-244)). The knock-down efficiency of the different CPP:siRNA nanoparticles was performed on U87 cell line stably transfected for constitutive expression of FLuc/NLuc reporter genes (U87-FRT-CMV/Fluc-CMV/iRFP-IRES-NLuc).

[5] = test system: U87 cells; assay: LDH cytotoxicity measurement; type: cell-based, human; conditions: incubation times 5 min to 90 min, 20 nM siFLuc
Experimental: Measurement of cell cytotoxicity. Evaluation of cytotoxicity induced by the nanoparticles was performed using Cytotoxicity Detection Kit^Plus (LDH, Roche Diagnostics) on 50 μL of supernatant, by following the manufacturer instructions.

[6] = test system: living U87 cells; assay: Spinning disk internalization kinetics of Cy3b-labelled siRNA; type: cell-based, human; conditions: siRNA-Cy3b 20 nM, R=20; for Incubation time to maximal fluorescence of delivered siRNA: maximal fluorescence 90%±5%, 900 s to 945 s
Experimental: For microscopy experiments, 300,000 U87 cells were seeded 24 h before imaging into glass bottom dishes (FluoroDish, World Precision Instruments). Before experiments, cells were washed twice with D-PBS and covered with 1,600 μL of complete medium. Afterwards, 400 μL of NPs (peptide:siRNA; R=20, siRNA=20 nM), formulated in an aqueous solution of 5% glucose were directly added on the cells as previously described.
For Spinning disk experiment, an inverted microscope (Nikon Ti Eclipse) coupled to a spinning disk (ANDOR) system was used to study the internalization kinetics of the NPs inside living cells. After the addition of the NPs, cells were maintained at 37° C. by a cage incubator (Okolab) and images were directly recorded every 5 s for 1,200 s with an EM-CCD camera (iXon Ultra) and projected with the Andor IQ3 software. Control experiments were performed to ensure that no emission bleed through was observed between the different channels. All images were treated with the ImageJ software.

[7] = Dynamic light scattering and zeta potential of nanoparticles; type: physicochemical
[8] = test system: U87 cells; assay: Cytotoxicity from Western blot internal control (vinculin) and total protein (BCA); type: cell-based, human; conditions: siCDK4 50 nM
Experimental: Western blotting. Transfected cells washed in PBS, and lysed in RIPA buffer [50 mM Tris pH 8.0, 150 mM sodium chloride, 1% Triton X-100, 0.1% SDS (sodium dodecyl sulfate, Sigma-Aldrich), including protease inhibitors (SigmaFAST, Sigma-Aldrich)]. Cells were incubated for 5 min on ice with 130 μL/24-well lysis buffer. Thereafter, cells were scrapped and transferred in a 1.5 ml tube. After 5 min on ice, the cell lysates were centrifuged (10 min, 13,400 rpm, 4° C.), supernatants were collected and protein concentrations were determined using the Pierce BCA Protein Assay (ThermoFisher). Cell extracts (0.25-0.38 μg/μL) were separated by 4-20% Mini-PROTEAN® TGX™ Precast Gel (Bio-Rad). After electrophoresis, samples were transferred onto Trans-Blot® Turbo™ Mini PVDF Transfer membrane (Bio-Rad). As antibodies (all from Cell Signaling), we used anti-cyclin B1 mouse mAb V152, anti-CDK4 rabbit mAb D9G3E, anti-Vinculin rabbit mAb E1E9V, anti-mouse IgG HRP and anti-rabbit IgG HRP. […] The signal intensities of the blots were quantified by Image J.
The cytotoxicity could be observed in Western blot using the internal control (Vinculin expression: bars in dark gray) or the total protein concentrations (measured by the BCA kit, value in red).

| Conformation by circular dichroism, PEPTIDE +siRNA +charged LUVs [2] | Conformation by circular dichroism, PEPTIDE +siRNA +neutral LUVs [2] | Conformation by circular dichroism, PEPTIDE [2] | Substance | Conformation by circular dichroism, PEPTIDE +siRNA [2] | PdI [3] | Luciferase knock-down at R=40 relative to R=20 [4] | Mean size (nm) I (%) [3] [nm] | Mean size (nm) Nb (%) [3] [nm] | other results |
| --- | --- | --- | --- | --- | --- | --- | --- | --- | --- |
| – | – | – | 5′-CUU-ACG-CUG-AGU-ACU-UCG-AdTdT-3′ [siFLuc] | – | – | – | – | – | Knock-down efficiency of siRNA alone [1]: did not shown any knock-down efficiency |
| helix | helix | turn/rc | LLRLLRWWWRLLRLL-NH2 [CPP2, LLRLLRWWWRLLRLL] | alpha helical structure; also recorded: helix | – | slightly increased | 80.0 ± 4.9 | 35.7 ± 7.3 | Reduction of firefly luciferase expression ([4]; 1 nM to 20 nM siRNA, R 20, L or D isoform): dose-dependent manner; Incubation time for maximum and saturating FLuc silencing [4]: 60 min; Reduction in the luciferase activity in presence of serum [4]: around 70%; Reduction of FLuc activity [4]: 40%; Fold more active than C6M1-L in reduced luciferase expression [4]: 3.5 fold; Fold more active than C6M1 in reduced luciferase expression [4]: 2 fold; Increase of knock-down efficiency, dilution condition versus vol:vol condition ([4]; U87 cells, siFLuc 5-20 nM): 2 fold; Cytotoxicity [5]: without any cytotoxicity; IC50 values of internalization (50%), incubation time [6]: 185 s; Incubation time to maximal fluorescence of delivered siRNA [6]: ~15 min; ZP (mV) ([7]; CPP:siRNA R = 20, 5% glucose with 1 mM NaCl): 28.8 ± 0.9 mV |
| helix | helix | turn | LLRLLRWWWWRLLRLL [CPP4] | alpha helical structure; also recorded: helix | – | slightly increased | 122.0 ± 71.5 | 23.6 ± 7.9 | – |
| – | – | – | LLRLRWWWRLRLL (CPP2-2) | – | – | – | – | – | Activity of nanoparticles in luciferase silencing [4]: total inactivity |
| helix | helix | rc/helix | LLWRLWRLLWRLWRLL-NH2 [CPP1, LLWRLWRLLWRLWRLL] | alpha helical structure; also recorded: helix | – | slightly increased | 73.3 ± 7.4 | 26.5 ± 4.1 | ZP (mV) ([3]; CPP:siRNA R = 20, 5% glucose with 5 mM NaCl): 42.2 ± 4.5 mV; Incubation time for maximum and saturating FLuc silencing [4]: 60 min; Reduction in the luciferase activity in presence of serum [4]: around 70%; Reduction of FLuc activity [4]: 40%; Fold more active than C6M1-L in reduced luciferase expression [4]: 6 fold; Fold more active than C6M1 in reduced luciferase expression [4]: 3 fold; Cytotoxicity [5]: without any cytotoxicity; Cytotoxicity (vinculin, total cellular proteins) [8]: without any cytotoxicity; IC50 values of internalization (50%), incubation time [6]: 240 s; Incubation time to maximal fluorescence of delivered siRNA [6]: ~15 min; Mean size of CPP1:MBBO nanoparticles (DLS) ([7]; R=5, 10 μM CPP1): 180 nm |
| – | – | – | LRLRWWWRLRL (CPP2-1) | – | – | – | – | – | Activity of nanoparticles in luciferase silencing [4]: total inactivity |
| – | – | – | RGD-Ahx-LLRLLRWWWRLLRLL (RGD[Ahx]LLRLLRWWWRLLRLL) [R-CPP2] | – | – | – | – | – | Reduction in the expression of luciferase ([4]; RGD-grafted peptide, R=20): ~70% |
| – | – | – | RLLRLLRWWWRLLRLLR (CPP2-6R) | – | 0.34 ± 0.03 | – | 59.8 ± 9.3 | 25.9 ± 3.9 | – |
| – | – | – | RLLRLLWWWLLRLLR-NH2 [CPP2-4R, RLLRLL-WWW-LLRLLR] | – | – | – | – | – | Cytotoxic effect inferred from variability of luciferase measurement ([4]; nanoparticle incubation): some cytotoxic effect |
| – | – | – | RLLWRLW-----LWRLLR (RLLWRLWLWRLLR; CPP1-4R) | – | 0.50 ± 0.04 | – | 1012 ± 984 | 422 ± 498 | – |
| – | – | – | RLLWRLWRLLWRLWRLLR (CPP1-6R) | – | 0.42 ± 0.08 | – | 125.3 ± 65.1 | 23.3 ± 3.4 | – |

| Substance | Conformation by circular dichroism, PEPTIDE +siRNA +charged LUVs [2] | Conformation by circular dichroism, PEPTIDE +siRNA +neutral LUVs [2] | Conformation by circular dichroism, PEPTIDE [2] | Conformation by circular dichroism, PEPTIDE +siRNA [2] | PdI [3] | Luciferase knock-down at R=40 relative to R=20 [4] | Mean size (nm) I (%) [3] [nm] | Mean size (nm) Nb (%) [3] [nm] | other results |
| --- | --- | --- | --- | --- | --- | --- | --- | --- | --- |
| LLRLLRWWRLLRLL (CPP3) | helix | helix | turn | alpha helical structure; also recorded: helix | around 0.3 | slightly increased | – | – | – |
